We go through 19 compounds from ChEMBL document CHEMBL3396989, “Discovery of hydroxyaniline amides as selective Extracellular Regulated Kinase (Erk) inhibitors” (Bioorg Med Chem Lett, 2015).

The target of test [1] is T1, Mitogen-activated protein kinase 1 (Homo sapiens, UniProt P28482). Nature of the test: Inhibition of activated Erk2 (unknown origin) by biochemical assay. The note with it: for pIC50: read-out: IC50.
In test [2] the target is T1, Mitogen-activated protein kinase 1. The test is described as follows: Inhibition of non-activated Erk2 (unknown origin) using activating Mek1 and peptide substrate by coupled Erk2 assay.
Test [3] shares this target. The test is described as follows: Binding affinity to non-phosphorylated Erk2 (unknown origin) by TdF assay.
Test [4] shares this target. The test is described as follows: Binding affinity to activated Erk2 (unknown origin) by TdF assay.
The target is the same in test [5]. The test is described as follows: ATP competitive inhibition of activated Erk2 (unknown origin) by biochemical assay.

A word on the pIC50: it is the negative decadic logarithm of the IC50, by convention in mol/L. The term pKd denotes −log10 of the Kd, conventionally taken in molar units. A high value points to a small Kd.

pIC50, pKd: −log10 of the molar value.

T1 sequence (P28482 whole entry): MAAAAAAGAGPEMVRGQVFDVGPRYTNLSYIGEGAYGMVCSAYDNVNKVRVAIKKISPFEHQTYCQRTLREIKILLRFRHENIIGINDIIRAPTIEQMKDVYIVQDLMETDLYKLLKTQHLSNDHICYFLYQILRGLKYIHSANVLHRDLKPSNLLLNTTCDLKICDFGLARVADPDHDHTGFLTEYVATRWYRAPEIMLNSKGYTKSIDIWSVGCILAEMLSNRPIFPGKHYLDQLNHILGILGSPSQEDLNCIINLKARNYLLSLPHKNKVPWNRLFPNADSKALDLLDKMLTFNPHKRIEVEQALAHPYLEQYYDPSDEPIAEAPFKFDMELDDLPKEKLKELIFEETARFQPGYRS

Turning to `O=C(Nc1ccc(O)c(F)c1)[C@@H]1CCN(CC(=O)N2CCN(c3ccc(-c4ncccn4)cc3)CC2)C1`, the pIC50 was 5.57 in test [1] and 7.15 in test [2].

As to `CC(C)c1cc(NC(=O)[C@@H]2CCN(CC(=O)N3CCN(c4ccc(-c5ncccn5)cc4)CC3)C2)ccc1O`, the pIC50 is 5.74 in test [1] and 7.14 in test [2].

Regarding `COc1ccc(-c2ccc(N3CCN(C(=O)CN4CC[C@@H](C(=O)Nc5ccc(O)c(Cl)c5)C4)CC3)cc2)cc1`, the pIC50 in test [1] was 4.30; in test [2] it was 5.64.

On to `O=C(Nc1ccc(O)c(Cl)c1)[C@@H]1CCN(CC(=O)N2CCN(c3ccc(-c4cnco4)cc3)CC2)C1`, for which the figures for the pIC50 in test [1] and in test [2] were 4.92 and 6.00, respectively.

In the case of `O=C(Nc1ccc(O)c(C2CC2)c1)[C@@H]1CCN(CC(=O)N2CCN(c3ccc(-c4ncccn4)cc3)CC2)C1`, the figures for the pIC50 in test [1] and in test [2] were 5.75 and 7.44, respectively.

As for `O=C(Nc1ccc(O)c(C(F)(F)F)c1)[C@@H]1CCN(CC(=O)N2CCN(c3ccc(-c4ncccn4)cc3)CC2)C1`, the values for the pIC50 in test [1] and in test [2] were 7.00 and 8.30, respectively.

Regarding `O=C(Nc1ccc(O)c(Cl)c1)[C@@H]1CCN(CC(=O)N2CCN(c3ccc(-c4cccs4)cc3)CC2)C1`, the pIC50 in test [1] is 4.70; in test [2], 5.60.

Take `COc1ncc(-c2ccc(N3CCN(C(=O)CN4CC[C@@H](C(=O)Nc5ccc(O)c(Cl)c5)C4)CC3)cc2)cn1`: the pIC50 in test [1] was 5.57; in test [2], 7.15.

For `O=C(Nc1ccc(O)c(Cl)c1)[C@@H]1CCN(CC(=O)N2CCN(c3ccc(-c4ncc(F)cn4)cc3)CC2)C1`, the pIC50 in test [1] was 5.75; in test [2], 7.44.

`O=C(Nc1ccc(O)c(Cl)c1)[C@@H]1CCN(CC(=O)N2CCN(c3ccc(-c4cncnc4)cc3)CC2)C1`: the pIC50 was 5.74 in test [1] and 7.14 in test [2].

Regarding `O=C(Nc1ccc(O)c(Cl)c1)[C@@H]1CCN(CC(=O)N2CCN(c3ccc(-c4ccccc4F)cc3)CC2)C1`, the IC50 result in test [1] is on record as “Not Active”. In addition, in test [2], the pIC50 is 5.92.

Turning to `CC(=O)c1ccc(N2CCN(C(=O)CN3CC[C@@H](C(=O)Nc4ccc(O)cc4)C3)CC2)cc1`, the pIC50 in test [1] is 5.22.

With `O=C(Nc1ccc(O)c(Cl)c1)[C@@H]1CCN(CC(=O)N2CCN(c3ccc(-c4cccc(F)c4)cc3)CC2)C1`, the IC50 entry in test [1] is recorded as “Not Active”. For the same compound, the pIC50 in test [2] is 5.66.

Regarding `O=C(Nc1ccc(O)c(Cl)c1)[C@@H]1CCN(CC(=O)N2CCN(c3ccc(-c4cnccn4)cc3)CC2)C1`, the pIC50 in test [1] was 6.89; in test [2] it was 7.85.

`O=C(Nc1ccc(O)c(Cl)c1)[C@@H]1CCN(CC(=O)N2CCN(c3ccc(-c4ccc(F)cc4)cc3)CC2)C1`: the pIC50 in test [1] was 4.00; in test [2], 4.72.

With `CCc1cnc(-c2ccc(N3CCN(C(=O)CN4CC[C@@H](C(=O)Nc5ccc(O)c(Cl)c5)C4)CC3)cc2)nc1`, the negative-log IC50 (pIC50) in test [1] was 7.00; in test [2], 8.30.

On to `O=C(Nc1ccc(O)c(Cl)c1)[C@@H]1CCN(CC(=O)N2CCN(c3ccc(-c4nccs4)cc3)CC2)C1`, for which the values for the pIC50 in test [1] and in test [2] were 5.03 and 6.52, respectively.

With `CC(=O)c1ccc(N2CCN(C(=O)CN3CCC(C(=O)Nc4ccc(O)cc4)C3)CC2)cc1` (stereo not drawn), the results for the pKd in test [3] and in test [4] were 5.97 and 5.72, respectively. In test [5], this compound gave a pIC50 of 4.82.

As for `O=C(Nc1ccc(O)c(Cl)c1)[C@@H]1CCN(CC(=O)N2CCN(c3ccc(-c4ncccn4)cc3)CC2)C1`, the pIC50 in test [1] is 6.39; in test [2], 7.70.
